Results from patent publication US20030219712A1, “Addition of glycolysis inhibitor to a pathogen reduction and storage solution” (priority 2002, published 2003).

Legend:
Assay type in all cases: cell-based
[1] = test system: pathogen treated platelets; experiment: GMP-140 expression on the surface of pathogen treated platelets (platelet activation) over five day storage; details: solutions containing 2-deoxy-D-glucose, vs solutions without glycolytic inhibitors (FIG. 4)
Excerpt: (§1) The following figures graph the quality of pathogen reduced platelets over a five day storage period. Platelets were separated from whole blood and collected using a blood collection device such as the COBE Spectra™ or TRIMA® apheresis systems available from Gambro BCT Inc., Lakewood, Colo., USA. However, it should be noted that any device known in the art for separating blood into components may be used to collect platelets without departing from the spirit and scope of the present invention.
(§2) Collected platelets were suspended in a volume of 278 mL of fluid containing […] riboflavin and either with or without a glycolytic inhibitor. 2-deoxy-D-glucose is one example of a glycolytic inhibitor which may be used in the present invention. The platelets were irradiated in a Sengewald bag (available from Sengewald Verpackungen GmbH & Co. KG) (however any bag known in the art may be used) at 7 J/cm^2 with a 320 nm broad band eximer light.
FIG. 4 is a graph showing GMP-140 expression on the surface of pathogen treated platelets over a five day storage period. GMP-140 is a marker which appears on the surface of platelets which are activated. When transfused into a recipient, platelets which are activated during storage have a higher percentage of being quickly removed from the recipient's circulatory system than non-activated platelets.

[2] = test system: pathogen reduced platelets; experiment: Lactate production by pathogen reduced platelets over five day storage; details: 10 mM 2-deoxy-D-glucose; five days in storage; riboflavin, 7 J/cm^2 320 nm light; vs platelets without 2-deoxy-D-glucose (FIG. 1)
Excerpt: as §1, §2

[3] = test system: pathogen reduced platelets; experiment: Glucose consumption of pathogen reduced platelets over time; details: 10 mM 2-deoxy-D-glucose; riboflavin, 7 J/cm^2 320 nm light; vs platelets containing no 2-deoxy-D-glucose (FIG. 2)
Excerpt: as §1, §2

[4] = test system: pathogen reduced platelets; experiment: pH over time of a solution of pathogen reduced platelets; details: 10 mM 2-deoxy-D-glucose; five day storage; platelets without it show rapid drop in pH (FIG. 3)
Excerpt: as §1, §2
As shown, 10 mM 2-deoxy-D-glucose appears to maintain the pH of the platelets at approximately pH 7.40. Platelets without 2-deoxy-D-glucose experience a rapid drop in pH. Such results are expected because lactic acid is not produced at high rates if the glycolysis pathway is inhibited, and consequently, the pH of the solution remains at a relatively constant level.

## O=CC[C@@H](O)[C@H](O)[C@H](O)CO [2-deoxy-D-glucose]
[1]
  percentage of GMP-140 expression: lower percentage
[2]
  production of lactic acid: marked decrease
[3]
  glucose consumption: slower rate
[4]
  pH of the platelets maintained during storage: ~7.40
